Like-named read-outs stand apart in the source and are kept apart here.
What was measured:
[1] = system: mice; assay: Head Twitch Response (HTR) in mice; type: in vivo; conditions: Mus musculus, 1 h, measured over a 60 minute interval
Experimental: Head Twitch Response (HTR) was assessed using a head-mounted neodymium magnet and a magnetometer detection coil, as described in Halberstadt et al., Psychopharmacology (Berl.), 2013, 227 (4): 727-739. Table 8 below summarizes the ED50 in head twitch (as measured over a 60 minute interval) in mice as a result of Compound 1 as compared to psilocybin.

[2] = molecular target: T1, 5-HT2A (Homo sapiens, UniProt P28223); assay: 5-HT2A Gq dissociation BRET functional assay; type: cell-based; parameters: expressed in transfected cells; host or cells: HEK293T; conditions: for 5-HT2A BRET Eff: normalized to % 5-HT stimulation
[3] = molecular target: T2, 5-HT2C (Homo sapiens, UniProt P28335); assay: cell-based; type: cell-based; parameters: expressed in transfected cells; host or cells: HEK293T; conditions: for EC50: Gq dissociation BRET, HEK293T
T2 sequence (P28335 33-458): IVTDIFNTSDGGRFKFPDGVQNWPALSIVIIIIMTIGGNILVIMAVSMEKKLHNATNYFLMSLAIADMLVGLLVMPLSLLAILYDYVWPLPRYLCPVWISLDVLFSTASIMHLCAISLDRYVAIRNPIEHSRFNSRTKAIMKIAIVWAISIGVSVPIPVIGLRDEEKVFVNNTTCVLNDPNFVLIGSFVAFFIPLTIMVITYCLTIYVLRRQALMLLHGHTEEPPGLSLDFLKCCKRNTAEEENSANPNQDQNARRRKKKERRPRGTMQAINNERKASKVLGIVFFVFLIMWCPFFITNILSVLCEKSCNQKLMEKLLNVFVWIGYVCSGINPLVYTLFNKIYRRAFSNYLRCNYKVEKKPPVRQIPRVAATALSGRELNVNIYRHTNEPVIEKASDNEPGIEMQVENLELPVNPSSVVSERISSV

[4] = system: hepatocyte; assay: In vitro hepatocyte clearance, mouse; type: in vitro ADME; conditions: Mouse
Experimental: (§1) Additional experimentation was performed on compounds 1, W5, and A93. Table 6a, 6b and 6c summarize, among other things, the anticipated hepatic clearance of compounds 1, W5 and A93 respectively, in various species, as specified in Table 6a, 6b and 6c and as determined by calculating the in vitro hepatocyte clearance over time and scaling such rate with such species' hepatocyte count and the anticipated liver blood flow rate in such species.

[5] = In vitro hepatocyte clearance, mouse; type: in vitro ADME; conditions: Mouse hepatocytes; for half-life: read-out: In vitro T1/2; for CLint scaled: read-out: Scale-up Clint
Experimental: as §1

[6] = system: hepatocyte; assay: In vitro hepatocyte clearance, human; type: in vitro ADME; conditions: Human
Experimental: as §1

[7] = In vitro hepatocyte clearance, human; type: in vitro ADME; conditions: Human hepatocytes; for half-life: read-out: In vitro T1/2; for CLint scaled: read-out: Scale-up Clint
Experimental: as §1

[8] = molecular target: T3, 5-HT2B (Homo sapiens, UniProt P41595); assay: 5-HT2B Gq dissociation BRET functional assay; type: cell-based; parameters: expressed in transfected cells; host or cells: HEK293T; conditions: for 5-HT2B BRET Eff: normalized to % 5-HT stimulation
Target sequence in this assay (P41595 whole entry): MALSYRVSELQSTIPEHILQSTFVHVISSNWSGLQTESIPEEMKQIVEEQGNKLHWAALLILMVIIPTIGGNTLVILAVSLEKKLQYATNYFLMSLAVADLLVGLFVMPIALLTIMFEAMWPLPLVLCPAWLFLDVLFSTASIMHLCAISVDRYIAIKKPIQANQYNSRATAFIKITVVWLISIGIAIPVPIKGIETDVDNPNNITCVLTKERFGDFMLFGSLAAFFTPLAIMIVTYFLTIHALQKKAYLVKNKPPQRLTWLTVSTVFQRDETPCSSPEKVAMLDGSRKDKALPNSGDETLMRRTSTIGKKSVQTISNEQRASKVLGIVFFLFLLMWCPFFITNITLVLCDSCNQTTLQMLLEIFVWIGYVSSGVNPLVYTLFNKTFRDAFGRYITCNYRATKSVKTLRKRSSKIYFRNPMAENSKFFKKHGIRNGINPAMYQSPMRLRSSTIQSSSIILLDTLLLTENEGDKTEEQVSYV

[9] = molecular target: 5-HT6 (Homo sapiens, UniProt P50406); assay: 5-HT receptor activity (Table 3), 5-HT6; type: cell-based
[10] = molecular target: 5-HT7 (Homo sapiens, UniProt P34969); assay: 5-HT receptor activity (Table 3), 5-HT7; type: cell-based
[11] = molecular target: 5-HT4 (Homo sapiens, UniProt Q13639); assay: 5-HT receptor activity (Table 3), 5-HT4; type: cell-based
[12] = molecular target: 5-HT1B (Homo sapiens, UniProt P28222); assay: 5-HT receptor activity (Table 3), 5-HT1B; type: cell-based
[13] = molecular target: T4, 5-HT1F (Homo sapiens, UniProt P30939); assay: 5-HT receptor activity (Table 3), 5-HT1F; type: cell-based
T4 sequence (P30939 1-366): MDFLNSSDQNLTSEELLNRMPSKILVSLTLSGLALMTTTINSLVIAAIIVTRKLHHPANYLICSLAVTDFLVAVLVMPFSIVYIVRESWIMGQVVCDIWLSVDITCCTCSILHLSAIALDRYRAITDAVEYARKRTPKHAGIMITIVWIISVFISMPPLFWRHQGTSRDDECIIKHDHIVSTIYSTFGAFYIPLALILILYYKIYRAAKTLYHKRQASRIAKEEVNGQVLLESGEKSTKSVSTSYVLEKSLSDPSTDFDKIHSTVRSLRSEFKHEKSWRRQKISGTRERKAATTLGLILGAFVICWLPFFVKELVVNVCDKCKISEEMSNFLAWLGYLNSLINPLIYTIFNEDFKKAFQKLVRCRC

[14] = molecular target: 5-HT1D (Homo sapiens, UniProt P28221); assay: 5-HT receptor activity (Table 3), 5-HT1D; type: cell-based
[15] = molecular target: 5-HT1E (Homo sapiens, UniProt P28566); assay: 5-HT receptor activity (Table 3), 5-HT1E; type: cell-based
[16] = molecular target: T3, 5-HT2B; assay: 5-HT receptor activity (Table 3), 5-HT2B; type: cell-based; conditions: 5-HT2B, Table 3
Target sequence in this assay (P41595 whole entry, species assumed): as the sequence (P41595 whole entry) above

[17] = molecular target: 5-HT5A (Homo sapiens, UniProt P47898); assay: 5-HT receptor activity (Table 3), 5-HT5A; type: cell-based
[18] = molecular target: T5, 5-HT1A (Homo sapiens, UniProt P08908); assay: 5-HT receptor activity (Table 3), 5-HT1A; type: cell-based
T5 sequence (P08908 1-422): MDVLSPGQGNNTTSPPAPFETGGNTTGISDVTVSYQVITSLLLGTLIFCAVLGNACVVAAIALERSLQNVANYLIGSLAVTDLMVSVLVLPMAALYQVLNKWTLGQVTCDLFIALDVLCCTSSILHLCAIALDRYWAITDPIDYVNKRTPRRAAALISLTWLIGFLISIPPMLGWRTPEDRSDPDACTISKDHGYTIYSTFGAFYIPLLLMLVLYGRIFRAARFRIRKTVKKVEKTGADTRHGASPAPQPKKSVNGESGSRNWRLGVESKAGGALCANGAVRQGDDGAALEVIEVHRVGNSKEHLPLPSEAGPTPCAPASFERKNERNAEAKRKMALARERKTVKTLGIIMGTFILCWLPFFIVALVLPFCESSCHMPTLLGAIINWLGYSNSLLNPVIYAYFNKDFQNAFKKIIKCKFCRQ

[19] = molecular target: T1, 5-HT2A; assay: 5-HT receptor activity (Table 3), 5-HT2A; type: cell-based; conditions: 5-HT2A, Table 3
[20] = normalized to % 5-HT stimulation

T1 sequence (P28223 whole entry): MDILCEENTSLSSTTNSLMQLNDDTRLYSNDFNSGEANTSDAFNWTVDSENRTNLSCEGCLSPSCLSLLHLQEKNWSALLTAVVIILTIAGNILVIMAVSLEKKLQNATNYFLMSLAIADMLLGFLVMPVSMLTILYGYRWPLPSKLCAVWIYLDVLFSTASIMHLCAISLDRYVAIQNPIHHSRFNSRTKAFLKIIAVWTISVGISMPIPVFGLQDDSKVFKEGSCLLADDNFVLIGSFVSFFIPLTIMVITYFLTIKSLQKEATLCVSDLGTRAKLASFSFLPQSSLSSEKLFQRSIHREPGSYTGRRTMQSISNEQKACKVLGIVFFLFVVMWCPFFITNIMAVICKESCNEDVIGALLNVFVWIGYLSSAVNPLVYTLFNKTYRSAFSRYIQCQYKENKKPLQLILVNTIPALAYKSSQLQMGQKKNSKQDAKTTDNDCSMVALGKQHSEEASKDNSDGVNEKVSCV
Sequence of 5-HT4 (Q13639 whole entry, species assumed): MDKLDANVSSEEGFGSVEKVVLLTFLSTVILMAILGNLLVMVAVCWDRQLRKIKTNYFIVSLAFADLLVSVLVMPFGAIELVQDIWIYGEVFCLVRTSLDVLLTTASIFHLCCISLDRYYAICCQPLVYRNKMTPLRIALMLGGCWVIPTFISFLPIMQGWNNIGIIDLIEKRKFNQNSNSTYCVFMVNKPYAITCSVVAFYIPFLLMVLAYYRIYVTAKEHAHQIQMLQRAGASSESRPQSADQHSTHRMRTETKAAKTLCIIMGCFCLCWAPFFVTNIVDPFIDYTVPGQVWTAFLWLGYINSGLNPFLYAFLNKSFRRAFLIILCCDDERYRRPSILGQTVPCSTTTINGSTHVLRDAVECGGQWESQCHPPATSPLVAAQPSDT
Sequence of 5-HT1B (P28222 whole entry, species assumed): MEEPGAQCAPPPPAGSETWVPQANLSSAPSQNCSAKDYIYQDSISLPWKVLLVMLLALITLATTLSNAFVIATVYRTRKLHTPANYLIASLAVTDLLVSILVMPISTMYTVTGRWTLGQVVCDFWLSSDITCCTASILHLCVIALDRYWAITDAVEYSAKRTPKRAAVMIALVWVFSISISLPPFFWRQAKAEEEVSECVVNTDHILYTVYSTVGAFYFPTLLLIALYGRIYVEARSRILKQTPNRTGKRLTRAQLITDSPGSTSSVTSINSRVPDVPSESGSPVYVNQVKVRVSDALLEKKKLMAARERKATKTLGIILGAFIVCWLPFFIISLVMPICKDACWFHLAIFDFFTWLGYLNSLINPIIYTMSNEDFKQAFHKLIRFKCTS
Sequence of 5-HT1D (P28221 whole entry, species assumed): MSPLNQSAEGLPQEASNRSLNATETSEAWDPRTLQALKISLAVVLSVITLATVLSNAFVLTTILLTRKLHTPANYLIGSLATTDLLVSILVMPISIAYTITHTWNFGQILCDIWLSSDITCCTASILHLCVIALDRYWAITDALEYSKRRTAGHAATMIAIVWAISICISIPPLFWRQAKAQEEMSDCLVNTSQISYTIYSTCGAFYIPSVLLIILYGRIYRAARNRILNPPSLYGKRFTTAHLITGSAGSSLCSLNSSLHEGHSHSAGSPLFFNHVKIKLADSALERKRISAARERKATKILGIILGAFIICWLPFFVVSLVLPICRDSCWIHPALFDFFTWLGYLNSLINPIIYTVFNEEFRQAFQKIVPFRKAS
Sequence of 5-HT7 (P34969 whole entry, species assumed): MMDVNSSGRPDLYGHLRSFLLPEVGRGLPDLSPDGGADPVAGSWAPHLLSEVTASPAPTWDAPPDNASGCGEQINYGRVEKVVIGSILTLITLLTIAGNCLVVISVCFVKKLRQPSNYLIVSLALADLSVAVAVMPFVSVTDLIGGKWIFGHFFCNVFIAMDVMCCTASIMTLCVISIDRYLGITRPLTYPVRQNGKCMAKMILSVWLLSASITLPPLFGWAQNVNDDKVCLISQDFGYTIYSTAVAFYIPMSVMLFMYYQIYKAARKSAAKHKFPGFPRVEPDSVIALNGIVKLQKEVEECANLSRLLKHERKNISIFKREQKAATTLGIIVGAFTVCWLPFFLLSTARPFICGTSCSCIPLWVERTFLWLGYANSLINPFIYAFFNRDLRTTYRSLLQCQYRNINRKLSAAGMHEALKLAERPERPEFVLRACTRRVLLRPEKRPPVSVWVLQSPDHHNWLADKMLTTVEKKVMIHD
Sequence of 5-HT6 (P50406 whole entry, species assumed): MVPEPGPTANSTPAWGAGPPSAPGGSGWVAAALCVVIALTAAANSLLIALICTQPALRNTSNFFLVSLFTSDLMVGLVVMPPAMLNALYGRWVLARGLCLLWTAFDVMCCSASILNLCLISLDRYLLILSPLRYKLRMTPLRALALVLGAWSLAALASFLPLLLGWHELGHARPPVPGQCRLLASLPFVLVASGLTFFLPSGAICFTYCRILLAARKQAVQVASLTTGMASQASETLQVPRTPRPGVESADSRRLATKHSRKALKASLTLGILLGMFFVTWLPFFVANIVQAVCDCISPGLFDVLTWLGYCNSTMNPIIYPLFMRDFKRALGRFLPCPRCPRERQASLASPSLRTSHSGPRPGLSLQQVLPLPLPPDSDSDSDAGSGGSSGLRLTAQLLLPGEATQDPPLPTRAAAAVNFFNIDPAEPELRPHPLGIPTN
Sequence of 5-HT5A (P47898 whole entry, species assumed): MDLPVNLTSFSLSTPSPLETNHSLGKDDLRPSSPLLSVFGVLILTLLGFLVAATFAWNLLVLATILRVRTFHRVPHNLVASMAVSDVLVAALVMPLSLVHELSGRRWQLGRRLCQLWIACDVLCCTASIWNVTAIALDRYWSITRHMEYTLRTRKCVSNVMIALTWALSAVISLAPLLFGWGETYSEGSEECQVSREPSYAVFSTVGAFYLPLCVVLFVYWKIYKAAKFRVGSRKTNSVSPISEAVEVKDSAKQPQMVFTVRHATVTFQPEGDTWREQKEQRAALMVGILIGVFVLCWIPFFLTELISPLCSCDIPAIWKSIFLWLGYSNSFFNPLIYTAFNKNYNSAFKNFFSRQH
Sequence of 5-HT1E (P28566 whole entry, species assumed): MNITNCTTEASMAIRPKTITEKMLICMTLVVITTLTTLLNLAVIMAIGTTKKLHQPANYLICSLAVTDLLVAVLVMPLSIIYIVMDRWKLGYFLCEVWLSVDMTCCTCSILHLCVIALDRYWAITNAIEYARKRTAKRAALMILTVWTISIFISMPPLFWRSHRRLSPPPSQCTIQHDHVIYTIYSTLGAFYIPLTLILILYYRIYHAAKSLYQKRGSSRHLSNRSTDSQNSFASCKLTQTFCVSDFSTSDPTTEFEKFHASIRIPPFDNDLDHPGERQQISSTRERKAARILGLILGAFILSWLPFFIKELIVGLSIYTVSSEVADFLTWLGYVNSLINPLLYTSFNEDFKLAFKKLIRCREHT

Row | SMILES | EC50 [2] [nM] | 5-HT2A BRET Eff [2] [%] | EC50 [3] [nM] | 5-HT2C BRET Eff [3, 20] [%] | EC50 [8] [nM] | 5-HT2B BRET Eff [8] [%] | other results
1 | CN(C)CCc1c[nH]c2cccc(OP(=O)(O)O)c12 [Psilocybin, psilocybin, reference compound] | – | – | – | – | – | – | ED50 [1]: 0.38 mg/kg
2 | Oc1cccc2[nH]c3c(c12)CCNCC3 [Cpd #67 (A93)] | 4 | 97 | 5.7 | 94 | 55.7 | 57 | Hepatic Extraction Ratio (E) [4]: <0.26; Predicted hepatic CL [4]: <23.60 mL/min/kg; hepatocyte CLint [5]: < 2.71 µL/min/1e6 cells; half-life [5]: > 8.53 h; CLint scaled [5]: < 32 mL/min/kg; Hepatic Extraction Ratio (E) [6]: <0.25; Predicted hepatic CL [6]: <5.17 mL/min/kg; hepatocyte CLint [7]: < 2.71 µL/min/1e6 cells; half-life [7]: > 8.53 h; CLint scaled [7]: < 6.89 mL/min/kg
3 | Cc1cccc2c(CCN(C)C)c[nH]c12 [7,N,N-TMT, reference compound] | – | 80 | – | 79 | – | 36 | EC50 ([8]; Gq dissociation BRET, HEK293T, read-out: 5-HT2B BRET EC50): 74.3 nM
4 | Cn1c2c(c3c(O)cccc31)CCNCC2 [Cpd #65 (A95)] | 5.9 | 96 | 2.8 | 93 | 40.3 | 70 | –
5 | Cc1ccc(O)c2c3c([nH]c12)C(C)CNCC3 (centres unmarked) [Cpd #45 (W8)] | 6.4 | 98 | 1.2 | 99 | 1.3 | 54 | –
6 | CN(C)CCc1c[nH]c2cccc(O)c12 [psilocin, reference compound] | – | 82 | – | – | – | 63 | Eff [9]: 74%; Eff [10]: 86%; Eff [11]: 81%; Eff [12]: 94%; Eff [13]: 93%; Eff [14]: 102%; Eff [15]: 90%; Eff [16]: 32%; Eff [17]: 48%; Eff [18]: 93%; Eff [19]: 80%
7 | Cc1ccc(O)c2c3c([nH]c12)CCN(C)CC3 [Cpd #14 (W5)] | 3.9 | 89 | 1.3 | 87 | 22.7 | 25 | Hepatic Extraction Ratio (E) [4]: 0.84; Predicted hepatic CL [4]: 75.80 mL/min/kg; hepatocyte CLint [5]: 40.7 µL/min/1e6 cells; half-life [5]: 0.568 h; CLint scaled [5]: 480 mL/min/kg; Hepatic Extraction Ratio (E) [6]: 0.13; Predicted hepatic CL [6]: 2.74 mL/min/kg; hepatocyte CLint [7]: 1.26 µL/min/1e6 cells; half-life [7]: 20.9 h; CLint scaled [7]: 3.22 mL/min/kg
8 | Cc1ccc(O)c2[nH]c3c(c12)CCNCC3 [Pharm-159] | 3.5 | 96 | 0.17 | 99 | 3 | 95 | –
9 | CN1CCc2c(n(C)c3cccc(O)c23)CC1 [Cpd #64 (A96)] | 15.3 | 87 | 6.7 | 79 | 90.9 | 46 | –
10 | Cc1cc(F)c(O)c2c3c([nH]c12)CCNCC3 [Cpd #27 (A92)] | 6.2 | 97 | 2.8 | 101 | 14 | 77 | –
11 | NCCc1c[nH]c2cccc(O)c12 [4-hydroxytryptamine, reference compound] | – | 100 | – | – | – | 100 | 5-HT2C BRET Eff [3]: 99%
12 | Cc1ccc(O)c2c3c([nH]c12)CCN(Cc1ccccc1O)CC3 [Cpd #18 (A90)] | 31 | 76 | 24 | 93 | 2.7 | −2.6 | –
13 | CN1CCc2[nH]c3cccc(O)c3c2CC1 [Cpd #66 (A94)] | 8.1 | 91 | 18.8 | 89 | 47.9 | 28 | –

Reference: patent US20250296934A1, “AZEPINOINDOLES AND METHODS OF PREPARATION THEREOF” (priority 2022, published 2025)
